Key:
[1] = test system: MDA‐MB‐468; assay: Cell migration (chemotaxis), Boyden-Chamber assay; format: cell-based, human; details: Doxorubicin 0.01 μM + compound 5 μM (PD153035 10 μM) vs 10% FBS and Doxorubicin alone
Method: (§1) TNBC cell lines—MDA‐MB‐231, MDA‐MB‐468, and the sorted CD24^+‐breast cancer cells, and CD24^−/CD44^+‐breast CSC populations from MDA‐MB‐231 [6] were seeded at a density of 1 × 10^6 cells/well to evaluate their migratory potential by Boyden‐Chamber assay. […] At the end of the treatment period, the cells were plated at a density of 5 × 10^3 cells/well in the upper chamber of the Boyden chamber assembly and 10% FBS in the lower chamber was used as a chemoattractant. Separately, the cells in the upper chamber were treated with Doxorubicin (0.01–0.1 μM) alone or with the potential EGFR inhibitors (compounds—1c, 1e, 1g, 1h, 1j, and 1k (5 μM) based on their low IC50 values) or a commercial EGFR inhibitor, PD153035 (10 μM) and incubated for 4 h followed by fixation and staining as described previously.[28], [29]

[2] = test system: MDA‐MB‐231; assay: Cell migration (chemotaxis), Boyden-Chamber assay; format: cell-based, human; details: Doxorubicin 0.01 μM + compound 5 μM (PD153035 10 μM) vs 10% FBS and Doxorubicin alone
Method: as §1

[3] = test system: Bax and Cytochrome‐C in MDA‐MB‐231 cells; assay: Gene expression of apoptotic genes, semi-quantitative RT-PCR; format: cell-based, human; details: MDA-MB-231, doxorubicin + compound 5 μM, 24 h
Method: Briefly, the cells were incubated at 37°C with serum starvation followed by culturing as described above. […] Briefly, the template RNA (1 μg) was utilized for cDNA synthesis using a First‐strand cDNA synthesis kit (Thermo Scientific, USA) according to the manufacturer's protocol. Thermal cycler (Mastercycler® nexus, Eppendorf) was used for the amplification of the expression of apoptotic genes—Bax, Bcl2, Cytochrome‐C, and target gene EGFR with the help of Dream Taq DNA Polymerase PCR Master Mix (Thermo Scientific, USA) along with human gene‐specific forward and reverse primer sequences of the apoptotic genes and EGFR (Table ST1). The expression of the target genes was normalized to the Eukaryotic 18S rRNA.

[4] = test system: CD24^−/CD44^+‐breast CSCs xenotransplanted tumors; assay: Preclinical orthotopic xenograft murine tumor model (tumor size, weight, H&E histology); format: in vivo, C57BL/6 mice
Method: Animal studies have been carried out with the prior approval of the Institutional Animal Ethics Committee (IICT/IAEC/025/2023). C57BL/6 female mice of age 6–8 weeks (N = 35) were initially immunosuppressed with cyclophosphamide (50 mg/kg of body weight, i.p) on alternate days for 2 weeks. For generating a preclinical orthotopic xenograft tumor model, 2 × 10^6 GFP expressing sorted stable CD24^+‐breast cancer cells and CD24^−/CD44^+‐breast CSCs were orthotopically xeno‐transplanted subcutaneously at the fourth mammary fat pad of immune‐suppressed mice (n = 5/group). Subsequently, intratumoral administration of Doxorubicin at a low dose (2.5 mg/kg of body weight), high dose (10 mg/kg of body weight), and/or combinatorial treatment of the potent EGFR inhibitor, compound 1e (50 mg/kg of body weight) or the commercial EGFR inhibitor, PD153035 (50 mg/kg of body weight) with a low dose of doxorubicin was performed to the palpable tumors of breast CSCs at day‐3 post‐transplantation.
Euthanization of mice was performed on day 14 post‐transplantation and tumor tissues were collected for histological and immunohistochemical analysis. Histological differences in tumor tissues were evaluated using hematoxylin and eosin staining (H&E).[28], [30]

Q: For c1cncc(C(c2c[nH]c3ccccc23)c2c[nH]c3ccccc23)c1 [1e], which migratory potential [1] is on record?
A: significant decrease

Q: What about the migratory potential [2] of the same molecule?
A: significant decrease

Q: What about the “expression of pro‐apoptotic genes Bax and Cytochrome‐C” value [3] of the same molecule?
A: marked increase

Q: And the “tumorigenicity (H&E histology)” value ([4]; 50 mg/kg + low dose doxorubicin 2.5 mg/kg, CSC xenograft)?
A: significant decrease

Q: And the “histopathological finding in tumor tissue” value ([4]; 50 mg/kg + low dose doxorubicin 2.5 mg/kg, CSC xenograft, day 14)?
A: no tumor mass

Q: And the tumor size ([4]; intratumoral, 50 mg/kg + doxorubicin low dose 2.5 mg/kg vs low dose doxorubicin alone, CD24^−/CD44^+ CSC xenograft)?
A: significantly decreased

From PMC10961089, “Epidermal growth factor receptor inhibition potentiates chemotherapeutics‐mediated sensitization of metastatic breast cancer stem cells” (Cancer Reports, 2024)
